Measurements published in US8399417B2, “Food” (Ajinomoto Co., Inc., priority 2007, dated 2013).
Starred links: 1 amine or outer side, 2 acyl side, 3 side chain; linkers in the order of their positions; H or OH if unused. Non-standard residues stand in square brackets, D forms with d. No end group written: not given here. γGlu = O=C(O)[C@H](CCC(=O)[*:2])N[*:1]; Abu = CC[C@H](N)C(=O)O

How the values were obtained:
[1] = target: T1, human calcium receptor (Homo sapiens, UniProt P41180); test: Calcium receptor-activating effect: Ca ion concentration-dependent Cl ionic current in Xenopus laevis oocyte expression system; type: cell-based; details: for Activity (lowest concentration at which current was detected): peptide added at 1,000 to 0.1 μM to potential-clamped oocytes, Table 1
T1 construct: expressed in transfected cells; host or cells: Xenopus laevis oocytes injected with cRNA; the gene was PCR-cloned from human kidney cDNA (Clontech) into pBR322
T1 sequence (P41180 20-1078): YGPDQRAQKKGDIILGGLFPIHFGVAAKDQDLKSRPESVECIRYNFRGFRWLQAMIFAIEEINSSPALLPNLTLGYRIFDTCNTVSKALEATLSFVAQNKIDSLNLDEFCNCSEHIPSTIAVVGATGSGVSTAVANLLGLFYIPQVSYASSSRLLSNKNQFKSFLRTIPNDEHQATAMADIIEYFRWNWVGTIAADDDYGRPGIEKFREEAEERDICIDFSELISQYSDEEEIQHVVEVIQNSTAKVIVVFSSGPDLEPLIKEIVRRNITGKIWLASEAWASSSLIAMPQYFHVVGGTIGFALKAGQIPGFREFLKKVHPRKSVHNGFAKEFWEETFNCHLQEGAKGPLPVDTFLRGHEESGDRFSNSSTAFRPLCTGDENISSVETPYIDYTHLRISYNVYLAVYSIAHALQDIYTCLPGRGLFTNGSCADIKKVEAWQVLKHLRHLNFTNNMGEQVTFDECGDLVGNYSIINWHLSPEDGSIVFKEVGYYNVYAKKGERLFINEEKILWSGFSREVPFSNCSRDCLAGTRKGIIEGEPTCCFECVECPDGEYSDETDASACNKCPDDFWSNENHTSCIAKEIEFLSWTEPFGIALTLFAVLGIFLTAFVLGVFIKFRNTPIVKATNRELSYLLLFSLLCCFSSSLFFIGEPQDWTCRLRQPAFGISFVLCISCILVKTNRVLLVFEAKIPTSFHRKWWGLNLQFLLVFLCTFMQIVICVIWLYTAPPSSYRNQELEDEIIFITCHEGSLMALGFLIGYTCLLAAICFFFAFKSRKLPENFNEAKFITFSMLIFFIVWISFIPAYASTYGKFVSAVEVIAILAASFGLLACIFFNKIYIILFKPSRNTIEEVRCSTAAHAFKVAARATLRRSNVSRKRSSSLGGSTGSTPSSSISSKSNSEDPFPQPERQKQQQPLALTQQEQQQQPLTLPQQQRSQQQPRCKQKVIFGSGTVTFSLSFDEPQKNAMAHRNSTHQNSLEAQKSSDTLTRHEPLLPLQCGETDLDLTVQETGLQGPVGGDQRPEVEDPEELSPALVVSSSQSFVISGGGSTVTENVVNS
Description: For evaluation of the calcium receptor-activating effect, a Ca ion concentration-dependent Cl ionic current measuring method using a Xenopus laevis oocyte expression system was used. If each activator is added to Xenopus laevis oocytes expressing the calcium receptor, intracellular Ca ions increase. Then, the Ca ion concentration-dependent Cl channel opens, and the intracellular current value changes as an ionic current. By measuring the change in the intracellular current value, whether the calcium receptor-activating effect is present or not can be determined.
Specifically, the abdomen of Xenopus laevis was opened, and an egg batch was taken out and then treated with a 1% collagenase solution at 20° C. for 2 hours to obtain individual oocytes. Into the oocytes, 50 nl of 1 μg/μl receptor cRNA or 50 nl of sterilized water per oocyte were injected by using a micro glass capillary, and the oocytes were cultured at 18° C. for 2 to 3 days. For the culture, a solution obtained by adding 2 mM pyruvic acid, 10 U/ml penicillin, and 10 μg/ml streptomycin to the solution in Reference Example 2 was used. After the culture, a test solution was added to the oocytes injected with cRNA or sterilized water. Electrophysiological measurement was performed by using an amplifier Geneclamp 500 (manufactured by Axon) and recording software AxoScope 9.0 (manufactured by Axon). The oocytes were membrane potential-clamped at −70 mV by the double electrode potential clamp method, and the intracellular current via the Ca ion concentration-dependent Cl ion was measured. The maximum value of the intracellular current was defined as the response current value.
The calcium receptor-activating effect of L-amino acids was evaluated by using the method described in Reference Example 6. That is, oocytes injected with cRNA of the calcium receptor or sterilized water were prepared, and membrane potential-clamped at −70 mV by the double electrode potential clamp method. To the potential-clamped oocytes, alanine (10 mM), arginine (10 mM), asparagine (10 mM), aspartic acid (10 mM), cysteine (10 mM), glutamine (10 mM), glutamic acid (10 mM), glycine (10 mM), histidine (10 mM), isoleucine (10 mM), leucine (10 mM), lysine (10 mM), methionine (10 mM), phenylalanine (10 mM), proline (10 mM), serine (10 mM), threonine (10 mM), tryptophan (10 mM), tyrosine (10 mM), valine (10 mM), ornithine (10 mM), taurine (10 mM), or hydroxyproline (10 mM) was added, and Ca ion concentration-dependent Cl response current was measured. […] 25, 2000, 97(9): 4814-9.
The calcium receptor-activating effect of D-cysteine was evaluated by using the method described in Reference Example 6. That is, oocytes injected with cRNA of the calcium receptor or sterilized water were prepared, and membrane potential-clamped at −70 mV by the double electrode potential clamp method. To the potential-clamped oocytes, D-cysteine (10 mM), L-cysteine (10 mM), D-tryptophan (10 mM), or L-tryptophan (10 mM) was added, and Ca ion concentration-dependent Cl response current was measured.
The calcium receptor-activating effect of a peptide was evaluated by using the method described in Reference Example 6. That is, oocytes injected with cRNA of the calcium receptor or sterilized water were prepared, and membrane potential-clamped at −70 mV by the double electrode potential clamp method.
The calcium receptor-activating effects of peptides were evaluated in the same manner as that of Reference Example 10. Each of the peptides shown in Table 1 was added to potential-clamped oocytes at 1,000 μM, 300 μM, 100 μM, 30 μM, 10 μM, 3 μM, 1 μM, 0.3 μM, and 0.1 μM, and Ca ion concentration-dependent Cl response current was measured.

[2] = Kokumi-imparting activity intensity, quantitative sensory evaluation test; type: in vivo, human; parameters: key: *: Unmeasurable: kokumi-imparting activity is too strong to measure by sensory evaluation
Description: The quantitative sensory evaluation test was performed as follows. […] It should be noted that a sample, which became acidic after the sample had been dissolved, was adjusted with NaOH to pH 6.8 to 7.2 before use. […] The test was performed with n=3 based on the following sensory evaluation scores: control (0 point) and glutathione addition (3 points).
The quantitative sensory evaluation test was performed as follows. […] It should be noted that a sample, which became acidic after the sample had been dissolved, was adjusted with NaOH to pH 6.8 to 7.2 before use. The test was performed with n=5 based on the following sensory evaluation scores: control (0 point) and glutathione addition (3 points).
The quantitative sensory evaluation test was performed as follows. […] It should be noted that a sample, which became acidic after the sample had been dissolved, was adjusted with NaOH to pH 6.8 to 7.2 before use. The test was performed with n=12 based on the following sensory evaluation scores: control (0 point) and glutathione addition (3 points).

[3] = 0.1 g/dl, n=5, control 0, glutathione 3 points, Table 4
[4] = 0.1 g/dl, n=12, control 0, glutathione 3 points, Table 5
[5] = 0.01 g/dl, n=5, control 0, glutathione 3 points, Table 4
[6] = 0.01 g/dl, n=12, control 0, glutathione 3 points, Table 5

Row | Compound | calcium receptor-activating effect (Cl response current) ([1]; peptide 50 μM, FIG. 4) | Taste profile ([2]; 0.1 g/dl, n=3, Table 3) | Kokumi intensity, Aftertaste ([2]; 0.1 g/dl, n=3, control 0, glutathione 3 points, Table 3) [points] | Kokumi intensity, Aftertaste [2, 3] [points] | Kokumi intensity, Initial and middle taste [2, 3] [points] | Kokumi intensity, Aftertaste [2, 4] [points] | Kokumi intensity, Initial and middle taste [2, 4] [points] | Kokumi intensity, Initial and middle taste ([2]; 0.1 g/dl, sodium glutamate, inosine monophosphate, sodium chloride solution, n=3, control 0, glutathione 3 points, Table 3) [points] | Activity (lowest concentration at which current was detected) [1] [µM] | Kokumi intensity, Aftertaste [2, 5] [points] | Kokumi intensity, Initial and middle taste [2, 5] [points] | Kokumi intensity, Aftertaste [2, 6] [points] | Kokumi intensity, Initial and middle taste [2, 6] [points] | Kokumi intensity, Aftertaste ([2]; 0.1 g/dl, n=5, Table 4) | Kokumi intensity, Initial and middle taste ([2]; 0.1 g/dl, n=5, Table 4) | Taste profile ([2]; 0.1 g/dl, n=5, Table 4)
1 | N[C@@H](CCC(=O)N[C@@H](CS)C(=O)NCC(=O)O)C(=O)O [γ-Glu-Cys-Gly, reference compound] | definite calcium receptor-activating effect | Thickness, growth, and continuity | 3.0 | 3.0 | 3.0 | 3.0 | 3.0 | 3.0 | – | – | – | – | – | – | – | –
2 | [γGlu]-Val-Gly | – | – | – | – | – | – | – | – | 0.1 | 3.0 | 3.0 | 3.0 | 3.0 | * | * | *
3 | [γGlu]-[Abu]-Gly | – | – | – | – | – | – | – | – | 3 | – | – | 2.0 | 3.0 | – | – | –
